Source: patent US20250000907A1, “ENGINEERED IMMUNE CELLS WITH REDUCED SIRT6 EXPRESSION” (H. LEE MOFFITT CANCER CENTER AND RESEARCH INSTITUTE, INC., priority 2021, published 2025)

How the values were obtained:
Format in all cases: cell-based, mouse
activated CD3+ T cells [1] = assay: Seahorse extracellular flux analysis (ECAR/OCR) of activated CD3+ T cells
Description: Spleens and/or lymph nodes (LN) were collected from C57BL/6J, Pmel and OT-II mice and were processed into single-cell suspensions. CD3+, CD4+ and CD8+ T cells were negatively enriched using Mouse Pan T cell, CD4^+ T cell and CD8^+ T Cell Isolation Kits™, respectively according to the manufacturer's instructions. The purity of the isolated cells was confirmed by flow cytometry (>95%). Purified T cells were cultured in complete RPMI 1640 medium (Thermo Fisher Scientific) supplemented with 10% (vol/vol) fetal bovine serum (FBS, Biowest) and 1% (vol/vol) penicillin/streptomycin (P/S, Thomas Scientific Inc.). T cells were activated with plate-bound anti-CD3 antibody (5 μg/ml, 145-2C11, BioXCell) for the indicated time periods. […]
(§1) Extracellular acidification rate (ECAR) and oxygen consumption rate (OCR) were measured using the Seahorse XF analyzer (Agilent technologies). […] For GST, ECAR and OCR were measured under basal conditions and in response to 10 mM glucose, 1 μM oligomycin and 50 mM 2-DG successively to calculate basal glycolytic rate, glycolytic capacity (in response to oligomycin), and glycolytic reserve (glycolytic capacity-basal rate). […] Results were normalized to total protein quantified using Pierce™ BCA Protein Assay Kit (Thermo Fisher Scientific).

[2] = tested on: CD3+ TILs isolated from B16F10 tumor nodules; assay: Seahorse ECAR of TILs isolated from s.c. B16F10 melanoma tumors; settings: TILs from s.c. B16F10 tumors in C57BL/6 mice, OSS vs. DMSO, FIG. 6F
Description: Anesthetized mice were injected subcutaneously (s.c.) into the hind limb with 2.5×10^5 B16F10 tumor cells in 200 μl of sterile PBS. Tumors were collected after 2 weeks and TILs were isolated for further analysis.
Lymphocytes from subcutaneous tumors were isolated by dicing the tissues followed by enzymatic digestion in PBS containing collagenase type 4 (2 mg/ml, Worthington Biochemical) and DNase I (0.25 mg/ml, Sigma-Aldrich) for 45 min with occasional shaking at 37° C. Cell suspensions were then twice filtered through 100 μm and 40 μm cell strainers (Thermo Fisher Scientific) to obtain single-cell suspension followed by a PBS wash and red blood cell lysis using RBC Lysis Buffer (Biolegend). […]
as §1

OT-II and Pmel T cells = assay: CFSE proliferation assay; settings: upon antigenic stimulation ex vivo, 3 days, FIG. 7A
Description: Pmel cells and OT-II cells were first labelled with 5 μM of CellTrace™ carboxyl fluorescein succinimidyl ester (CFSE, Thermo Fisher Scientific) for 30 min at room temperature (RT) and then stimulated with gp100 or remained non-stimulated with and without Sirt6 inhibitor (OSS) for 3 days.

[3] = tested on: Pmel T cells stimulated with gp100; assay: Intracellular granzyme B staining by flow cytometry; settings: activated Pmel T cells, OSS vs. DMSO, FIG. 7B
Description: For intracellular cytokine staining, cells were firstly stimulated with phorbol 12-myristate 13-acetate (PMA, 10 ng/ml, Sigma) and ionomycin (1 μM/ml, Sigma) for 1 hour followed by GolgiPlug™ treatment (1% c, BD Biosciences) for 6 h and then stained with IFN-γ (BV711, BD Biosciences) and Granzyme B (Alexa647, Biolegend). Cells were acquired on a BD FACSymphony™ A5 and LSR II (Becton Dickinson), and data were analyzed with FlowJo software Version 10.0 software.

[4] = tested on: Pmel T cells stimulated with gp100; assay: IFN-γ ELISPOT assay of Pmel T cells; settings: activated Pmel T cells, OSS vs. DMSO, FIG. 7C
Description: The number of IFN-γ producing cells was evaluated in an ELISPOT assay. Briefly, mouse TILs were plated at 1×10^5 cells and co-cultured with 1×10^3 irradiated B16F10 tumor cells (50 Gray) in the presence of the indicated concentrations of OSS, in a 96-well nitrocellulose flat-bottomed plate (ELISPOT plate, Millipore) pre-coated with an anti-mouse IFN-γ antibody (AN-18, Mabtech, Inc.) and incubated for 48 hr at 37° C. For Pmel T cells, splenocytes were first stimulated with gp100 (1 μg/ml, Anaspec) for 48 hr in the presence of the indicated concentrations of OSS and then transferred to the ELISPOT plate pre-coated with an anti-mouse IFN-γ antibody (AN-18, Mabtech, Inc.) for an additional 48 hr. For human CD3+ T cells and TILs, cells were first stimulated with plate-coated anti-CD3 for 48 hr in the presence of vehicle or OSS at the indicated concentration and then transferred to the ELISPOT plate pre-coated with an anti-human IFN-γ antibody (1-DIK, Mabtech, Inc.). PMA (10 ng/ml, Sigma-Aldrich) was used as positive assay control. After washing steps and successive biotinylated anti-IFN-γ antibody (R4-6A2, Mabtech, Inc.) and Streptavidin-HRP (BD Bioscience) labeling, spots were detected using AEC Substrate Kit (BD Biosciences) and counted using an AID ELISPOT Reader System (Autoimmun Diagnostika GmbH).

B16F10 cells = assay: LDH release cytotoxic assay of Pmel T cells against B16F10 cells; settings: Pmel T cells ex vivo, OSS vs. DMSO, FIG. 7D
Description: Evaluation of functional cytotoxic activity was performed using Pierce™ LDH Cytotoxicity Assay Kit (Thermo Fisher Scientific) according to the manufacturer's protocol. B16F10 cells or human NSCLC autologous tumor cells were used as target cells. Mouse CD8+ enriched T cells from gp100-stimulated Pmel splenocytes or human NSCLC TILs were used as effector cells. Target tumor cells were co-cultured with effector cells in 96-well round-bottom microplates at the indicated effector:target ratios with and without Sirt6 inhibitor. After 6 hr, the percentage of specific LDH release was calculated according to the following formula: % cell lysis=(experimental value−effector cells spontaneous release−target cells spontaneous release)×100/(target cells maximum release−target cells spontaneous release), where “experimental” corresponds to the experimental signal value, “effector spontaneous” to spontaneous release of LDH from effector cells alone, “target spontaneous” to spontaneous release of LDH from target cells alone and “maximum release” to the maximum release of LDH from target cells in medium containing 1% Triton X-100.

[5] = tested on: TILs isolated from B16F10 tumors; assay: IFN-γ ELISPOT assay of B16F10 TILs re-challenged with B16F10 cells; settings: B16F10 TILs re-challenged with B16F10 cells ex vivo, FIG. 7G
Description: Lymphocytes from subcutaneous tumors were isolated by dicing the tissues followed by enzymatic digestion in PBS containing collagenase type 4 (2 mg/ml, Worthington Biochemical) and DNase I (0.25 mg/ml, Sigma-Aldrich) for 45 min with occasional shaking at 37° C. Cell suspensions were then twice filtered through 100 μm and 40 μm cell strainers (Thermo Fisher Scientific) to obtain single-cell suspension followed by a PBS wash and red blood cell lysis using RBC Lysis Buffer (Biolegend). TILs were finally isolated by density gradient centrifugation using Percoll (GE Healthcare) and were further purified using […] MicroBeads Kit™ (Miltenyi Biotec) according to the manufacturer's instructions. T cell purity was greater than 90% (data not shown). Fresh TILs were used directly for phenotypic and metabolic analyses or were cultured in complete RPMI medium for functional assays.
The number of IFN-γ producing cells was evaluated in an ELISPOT assay. […] After washing steps and successive biotinylated anti-IFN-γ antibody (R4-6A2, Mabtech, Inc.) and Streptavidin-HRP (BD Bioscience) labeling, spots were detected using AEC Substrate Kit (BD Biosciences) and counted using an AID ELISPOT Reader System (Autoimmun Diagnostika GmbH).

activated CD3+ T cells [6] = assay: Western blot analysis of activated T cells
Description: Whole cell lysates were prepared using lysis buffer (Pierce RIPA buffer, Thermo Fisher Scientific) supplemented with Complete™ protease inhibitor cocktail and PhosSTOP phosphatase inhibitor cocktail (Roche Applied Science).
Cell lysates (20 μg) or IP samples were loaded onto 10% SDS-PAGE and separated by electrophoresis followed by semi-dry transfer into polyvinylidene fluoride membranes (Immun-Blot® PVDF membrane, Bio-Rad) using Trans-Blot Turbo transfer system (Bio-Rad). After transfer, the membranes were blocked at room temperature with Tris-buffered saline (TBS) containing 0.05% Tween-20 (TBST) and 5% (w/v) non-fat dry milk for 1 hour and then incubated overnight at 4° C. with a specific primary antibody (indicated below). The membranes were washed three times with TBST and then incubated for 1 hour with horseradish peroxidase (HRP)-conjugated goat […] IgG H&L (Abcam, #ab97051, 1:3,000) for regular western blotting analysis, or HRP-conjugated mouse anti-rabbit IgG light-chain specific (Cell Signaling, #93702, 1:1,000) for IP samples. After washing 3 times with TBST, bound antibodies were detected by chemiluminescence using the Pierce™ ECL Western Blotting Substrate and the Super Signal West Femto Maximum Sensitivity Substrate kits (Thermo Fisher Scientific). Image acquisition was performed with the Amersham imager 600 system (GE Healthcare Bio-Sciences).
Immunoblotting was performed using primary antibodies against: Sirt6, H3K9, acetylated-H3K9 and c-Myc (#9402, 1:1,000) from Cell signaling, LDH (#ab52488, 1:5,000), PFKP (#ab204131, 1:2,000), HK1 (#ab150423, 1:1,000), HIF-1α and beta-Actin from Abcam

[7] = activated CD3+ T cells, WB, FIG. 8J

## O=C(Nc1ccc(O)c(C(=O)O)c1)c1cccc(NC(=O)c2ccco2)c1 [OSS_128167]
Activated CD3+ T cells [1]; CD3-stimulated CD3+ T cells, OSS 25 μM or 50 μM vs. vehicle (DMSO), FIG. 6A
  glycolytic flux (ECAR): profoundly increased
Activated CD3+ T cells [1]; activated T cells, pharmacologic inhibition, FIG. 6G
  SRC in response to the mitochondrial decoupling agent (FCCP) (OCR): increase
[2]
  glycolytic activity of TILs (ECAR): restored
OT-II and Pmel T cells
  proliferation (CFSE dilution): increased
[3]
  granzyme B expression: increases
[4]
  IFN-γ release: increases
B16F10 cells
  cytotoxic activity against B16F10 cell challenge: superior cytotoxic activity
[5]
  IFN-γ release: increase
Activated CD3+ T cells [6]; [7]
  Glut1 protein expression levels: upregulation
  HK1 protein expression levels: upregulation
  LDHA protein expression levels: upregulation
  PFKP protein expression levels: upregulation
Activated CD3+ T cells [6]; activated T cells, FIG. 8D
  H3K9 acetylation levels: increased
  HIF-1α expression levels: no effect
